The source of these data is patent US20100286139A1, “AMINO PYRAZOLE COMPOUND” (ELI LILLY AND COMPANY, priority 2008, published 2010).

The target in this assay is T1, JAK2V617F (Homo sapiens, UniProt O60674, V617F).
T1 construct: expressed in transfected cells; host or cells: Ba/F3 (murine pro-B) cells
Put plainly: Ba/F3 JAK2V617F cell-based assay (Cellomics ArrayScan HCS). Set-up: species or system murine. Particulars: Ba/F3 cells expressing JAK2V617F, 60 min compound incubation; read-out: relative IC50, inhibition of pSTAT5. An excerpt:
JAK2 target inhibition has been evaluated in Ba/F3 expressing JAK2 V617F by Western blot as reported in Wernig et al. (Wernig G, et al. Efficacy of TG101348, a selective JAK2 inhibitor, in treatment of a murine model of JAK2V617F-induced polycythemia vera, Cancer Cell, April; 13(4):311-20). A medium throughput Cellomics assay was established to evaluate the JAK2 target inhibition in Ba/F3 cells expressing JAK2V617F. This assay enables the discovery of an effective therapeutic agent to treat disorders associated with JAK2V617F mutation.
Ba/F3 (murine pro-B) cells expressing JAK2V617F maintained in RPMI 1640 with 10% FBS, 0.07% sodium bicarbonate, 1 mM sodium pyruvate, 1× antibiotic/antimycotic (Invitrogen, Carlsbad, Calif.) and 0.45% glucose (Sigma, St Louis, Mo.). Cells are kept at 37° C. with 5% CO2. The test compound is prepared in 100% DMSO at 10 mM concentration. […]
After cell treatment, 500 μL of 1% formaldehyde solution (made freshly with phosphate-buffered saline (PBS) and kept warm at 37° C.) is added to each well. […] An aliquot of 200 μL of 1 to 10 dilution of Mouse anti-pSTAT5 (pY694) Alexa Fluor 647® in fluorescence activated cell sorting (FACS) buffer is added to the cells. […] Mean fluorescent intensity data are collected and analyzed using Cellomics Arrayscan® VTi. […] The relative IC50 is calculated using a 4 parameter logistic curve fitting analysis with ActivityBase 4.0. […]

The structures appear in SMILES notation.

T1 sequence (O60674 whole entry V617F): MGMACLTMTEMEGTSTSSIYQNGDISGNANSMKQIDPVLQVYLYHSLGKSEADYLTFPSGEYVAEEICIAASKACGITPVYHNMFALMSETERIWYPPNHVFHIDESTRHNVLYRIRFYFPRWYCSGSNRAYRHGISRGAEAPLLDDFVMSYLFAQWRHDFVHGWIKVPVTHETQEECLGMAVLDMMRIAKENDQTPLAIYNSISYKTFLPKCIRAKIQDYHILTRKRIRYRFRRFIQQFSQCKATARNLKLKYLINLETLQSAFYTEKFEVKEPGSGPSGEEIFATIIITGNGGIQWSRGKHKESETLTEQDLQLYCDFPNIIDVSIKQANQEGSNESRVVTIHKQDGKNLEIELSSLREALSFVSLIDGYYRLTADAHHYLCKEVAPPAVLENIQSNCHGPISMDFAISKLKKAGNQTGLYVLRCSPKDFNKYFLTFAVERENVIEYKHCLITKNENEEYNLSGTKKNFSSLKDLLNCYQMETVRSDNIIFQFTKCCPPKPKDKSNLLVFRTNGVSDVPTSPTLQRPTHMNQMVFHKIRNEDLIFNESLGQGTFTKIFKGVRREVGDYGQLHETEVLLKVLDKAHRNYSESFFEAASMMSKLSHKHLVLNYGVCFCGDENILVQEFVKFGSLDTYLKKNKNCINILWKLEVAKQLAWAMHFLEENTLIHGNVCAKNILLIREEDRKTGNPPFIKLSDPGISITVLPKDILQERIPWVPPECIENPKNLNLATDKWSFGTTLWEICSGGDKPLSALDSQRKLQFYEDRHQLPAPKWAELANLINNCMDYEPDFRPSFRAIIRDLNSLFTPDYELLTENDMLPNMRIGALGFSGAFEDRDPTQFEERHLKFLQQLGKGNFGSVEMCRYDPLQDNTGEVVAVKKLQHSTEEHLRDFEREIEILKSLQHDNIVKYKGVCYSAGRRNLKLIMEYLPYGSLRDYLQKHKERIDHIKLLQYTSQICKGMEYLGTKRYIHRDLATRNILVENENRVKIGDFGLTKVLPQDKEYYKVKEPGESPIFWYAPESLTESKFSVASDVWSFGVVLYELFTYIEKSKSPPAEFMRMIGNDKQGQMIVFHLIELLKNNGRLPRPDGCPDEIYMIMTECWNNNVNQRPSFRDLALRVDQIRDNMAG

Regarding `Cc1cc(Nc2cc(CN3CCOCC3)c3nc(C)c(Cc4ccc(Cl)cc4F)n3n2)n[nH]1` [3-(4-Chloro-2-fluorobenzyl)-2-methyl-N-(5-methyl-1H-pyrazol-3-yl)-8-(morpholinomethyl)imidazo[1,2-b]pyridazin-6-amine], the IC50 turned out to be 30 nM.

One may read the IC50 as the midpoint of a concentration-inhibition curve.
